These results are taken from US12516095B2, “Peptide hormone analogues” (IP2IPO INNOVATIONS LIMITED, priority 2019, dated 2026).

Starred links: 1 amine or outer side, 2 acyl side, 3 side chain; linkers in the order of their positions; H or OH if unused. Non-standard residues stand in square brackets, D forms with d. Residues, ends and D or L forms follow the SMILES beside them. Groups on a side chain read outwards from the residue. *: point of attachment. C20 diacid = O=C(O)CCCCCCCCCCCCCCCCCCC(=O)*; C18 diacid = O=C(O)CCCCCCCCCCCCCCCCC(=O)*; γGlu = O=C(O)[C@H](CCC(=O)[*:2])N[*:1]; Aib = CC(C)(N)C(=O)O

The data set can be described thus: PK measurements for half life assessment in pigs. Type of data set: in vivo, pig. Particulars: male, large white, pig, plasma, sc, single subcutaneous injection, time from tmax to half of Cmax, typically mean of four animals. As to the method:
Male large white pigs receive a single subcutaneous injection of the test compound at the start of study (0 hours). Repeated blood samples were taken from the pig over the proceeding 168 hours and plasma separated and stored at −20 to −80° C. Plasma concentration of the test compound was quantified using a radioimmunoassay or mass spectrum analysis. Time taken from tmax to half of Cmax was calculated and represents the half-life (t½) of the compound. Typically, the presented t½ is the mean of four separate animals.
By half-life is commonly meant the time in which the quantity being followed falls by half. High values mean slow decline, low ones rapid decline. Consider “H-H[Aib]HGTFTSDYSKYLDAKRAQEFIEWLLQSHHQQHESPPPGK([Asn-γGlu-C20 diacid])-OH [Example 647]”, for which the half-life was 106 h. The figure for `CC[C@H](C)[C@H](NC(=O)[C@H](Cc1ccccc1)NC(=O)[C@H](CCC(=O)O)NC(=O)[C@H](CCC(N)=O)NC(=O)[C@H](C)NC(=O)[C@H](CCCNC(=N)N)NC(=O)[C@H](CCCCN)NC(=O)[C@H](C)NC(=O)[C@H](CC(=O)O)NC(=O)[C@H](CC(C)C)NC(=O)[C@H](Cc1ccc(O)cc1)NC(=O)[C@H](CCCCN)NC(=O)[C@H](CO)NC(=O)[C@H](Cc1ccc(O)cc1)NC(=O)[C@H](CC(=O)O)NC(=O)[C@H](CO)NC(=O)[C@@H](NC(=O)[C@H](Cc1ccccc1)NC(=O)[C@@H](NC(=O)CNC(=O)[C@H](Cc1c[nH]cn1)NC(=O)C(C)(C)NC(=O)[C@@H](N)Cc1c[nH]cn1)[C@@H](C)O)[C@@H](C)O)C(=O)N[C@@H](CCC(=O)O)C(=O)N[C@@H](Cc1c[nH]c2ccccc12)C(=O)N[C@@H](CC(C)C)C(=O)N[C@@H](CC(C)C)C(=O)N[C@@H](CCC(N)=O)C(=O)N[C@@H](CO)C(=O)N[C@@H](Cc1c[nH]cn1)C(=O)N[C@@H](CCC(N)=O)C(=O)N[C@@H](CCC(N)=O)C(=O)N[C@@H](Cc1c[nH]cn1)C(=O)N1CCC[C@H]1C(=O)N[C@@H](CO)C(=O)N[C@@H](CO)C(=O)N[C@@H](CO)C(=O)N[C@@H](C)C(=O)N[C@@H](CCCCNC(=O)[C@H](CC(N)=O)NC(=O)CC[C@H](NC(=O)CCCCCCCCCCCCCCCCCCC(=O)O)C(=O)O)C(=O)O` [Example 708] (H-H[Aib]HGTFTSDYSKYLDAKRAQEFIEWLLQSHQQHPSSSAK([Asn-γGlu-C20 diacid])-OH) is 105 h; for “H-H[Aib]HGTFTSDYSKYLDAKRAQEFIEWLLQSHQQHHESPPPGK([γGlu-C20 diacid])-OH [Example 642]” it is 109 h.

Compound `CC[C@H](C)[C@H](NC(=O)[C@H](Cc1ccccc1)NC(=O)[C@H](CCC(=O)O)NC(=O)[C@H](Cc1c[nH]cn1)NC(=O)[C@H](C)NC(=O)[C@H](CCCNC(=N)N)NC(=O)[C@H](CCCCN)NC(=O)[C@H](C)NC(=O)[C@H](CC(=O)O)NC(=O)[C@H](CC(C)C)NC(=O)[C@H](Cc1ccc(O)cc1)NC(=O)[C@H](CCCCN)NC(=O)[C@H](CO)NC(=O)[C@H](Cc1ccc(O)cc1)NC(=O)[C@H](CC(=O)O)NC(=O)[C@H](CO)NC(=O)[C@@H](NC(=O)[C@H](Cc1ccccc1)NC(=O)[C@@H](NC(=O)CNC(=O)[C@H](Cc1c[nH]cn1)NC(=O)C(C)(C)NC(=O)[C@@H](N)Cc1c[nH]cn1)[C@@H](C)O)[C@@H](C)O)C(=O)N[C@@H](CCC(=O)O)C(=O)N[C@@H](Cc1c[nH]c2ccccc12)C(=O)N[C@@H](CC(C)C)C(=O)N[C@@H](CC(C)C)C(=O)N[C@@H](CCC(N)=O)C(=O)N[C@@H](CO)C(=O)N[C@@H](Cc1c[nH]cn1)C(=O)N[C@@H](CCC(N)=O)C(=O)N[C@@H](CCC(N)=O)C(=O)N[C@@H](Cc1c[nH]cn1)C(=O)N[C@@H](CCC(=O)O)C(=O)N[C@@H](CO)C(=O)N1CCC[C@H]1C(=O)N1CCC[C@H]1C(=O)N1CCC[C@H]1C(=O)NCC(=O)N[C@@H](CCCCNC(=O)[C@H](CC(N)=O)NC(=O)CC[C@H](NC(=O)CCCCCCCCCCCCCCCCCCC(=O)O)C(=O)O)C(=O)O` [Example 652] (H-H[Aib]HGTFTSDYSKYLDAKRAHEFIEWLLQSHQQHESPPPGK([Asn-γGlu-C20 diacid])-OH) had a half-life of 116 h.

Consider “H-H[Aib]HGTFTSDYSKYLDAKRAQEFIEWLLQSHQHQHESPPPGK([His-Asn-γGlu-C18 diacid])-OH [Example 640]”, for which the half-life was 135 h. As to `CC[C@H](C)[C@H](NC(=O)[C@H](Cc1ccccc1)NC(=O)[C@H](CCC(=O)O)NC(=O)[C@H](CCC(N)=O)NC(=O)[C@H](C)NC(=O)[C@H](CCCNC(=N)N)NC(=O)[C@H](CCCCN)NC(=O)[C@H](C)NC(=O)[C@H](CC(=O)O)NC(=O)[C@H](CC(C)C)NC(=O)[C@H](Cc1ccc(O)cc1)NC(=O)[C@H](CCCCN)NC(=O)[C@H](CO)NC(=O)[C@H](Cc1ccc(O)cc1)NC(=O)[C@H](CC(=O)O)NC(=O)[C@H](CO)NC(=O)[C@@H](NC(=O)[C@H](Cc1ccccc1)NC(=O)[C@@H](NC(=O)CNC(=O)[C@H](Cc1c[nH]cn1)NC(=O)C(C)(C)NC(=O)[C@@H](N)Cc1c[nH]cn1)[C@@H](C)O)[C@@H](C)O)C(=O)N[C@@H](CCC(=O)O)C(=O)N[C@@H](Cc1c[nH]c2ccccc12)C(=O)N[C@@H](CC(C)C)C(=O)N[C@@H](CC(C)C)C(=O)N[C@@H](CCC(N)=O)C(=O)N[C@@H](CO)C(=O)N[C@@H](Cc1c[nH]cn1)C(=O)N[C@@H](CCC(N)=O)C(=O)N[C@@H](CCC(N)=O)C(=O)N[C@@H](Cc1c[nH]cn1)C(=O)N1CCC[C@H]1C(=O)N[C@@H](CO)C(=O)N1CCC[C@H]1C(=O)N1CCC[C@H]1C(=O)N1CCC[C@H]1C(=O)NCC(=O)N[C@@H](CCCCNC(=O)[C@H](CC(N)=O)NC(=O)CC[C@H](NC(=O)CCCCCCCCCCCCCCCCCCC(=O)O)C(=O)O)C(=O)O` [Example 706] (H-H[Aib]HGTFTSDYSKYLDAKRAQEFIEWLLQSHQQHPSPPPGK([Asn-γGlu-C20 diacid])-OH), the half-life is 110 h. On to `CC[C@H](C)[C@H](NC(=O)[C@H](Cc1ccccc1)NC(=O)[C@H](CCC(=O)O)NC(=O)[C@H](CCC(N)=O)NC(=O)[C@H](C)NC(=O)[C@H](CCCNC(=N)N)NC(=O)[C@H](CCCCN)NC(=O)[C@H](C)NC(=O)[C@H](CC(=O)O)NC(=O)[C@H](CC(C)C)NC(=O)[C@H](Cc1ccc(O)cc1)NC(=O)[C@H](CCCCN)NC(=O)[C@H](CO)NC(=O)[C@H](Cc1ccc(O)cc1)NC(=O)[C@H](CC(=O)O)NC(=O)[C@H](CO)NC(=O)[C@@H](NC(=O)[C@H](Cc1ccccc1)NC(=O)[C@@H](NC(=O)CNC(=O)[C@H](Cc1c[nH]cn1)NC(=O)C(C)(C)NC(=O)[C@@H](N)Cc1c[nH]cn1)[C@@H](C)O)[C@@H](C)O)C(=O)N[C@@H](CCC(=O)O)C(=O)N[C@@H](Cc1c[nH]c2ccccc12)C(=O)N[C@@H](CC(C)C)C(=O)N[C@@H](CC(C)C)C(=O)N[C@@H](CCC(N)=O)C(=O)N[C@@H](CO)C(=O)N[C@@H](Cc1c[nH]cn1)C(=O)N[C@@H](CCC(N)=O)C(=O)N[C@@H](CCC(N)=O)C(=O)N[C@@H](Cc1c[nH]cn1)C(=O)N1CCC[C@H]1C(=O)N[C@@H](CO)C(=O)N[C@@H](CO)C(=O)N[C@@H](CO)C(=O)N[C@@H](CO)C(=O)N[C@@H](C)C(=O)N[C@@H](CCCCNC(=O)[C@H](CC(N)=O)NC(=O)CC[C@H](NC(=O)CCCCCCCCCCCCCCCCCCC(=O)O)C(=O)O)C(=O)O` [Example 707] (H-H[Aib]HGTFTSDYSKYLDAKRAQEFIEWLLQSHQQHPSSSSAK([Asn-γGlu-C20 diacid])-OH), for which the half-life was 103 h.
